Source: US20260285850A1, “SUBSTITUTED OXAZOLIDINONES AND IMIDAZOLINONES AS HERBICIDES” (FMC CORPORATION, priority 2023, published 2026)

Assays:
Type in all cases: in vivo
[1] = tested on: barnyardgrass (Echinochloa crus-galli); test: Test A preemergence soil spray, visual injury rating 0-100; settings: 10 days
Method in brief: (§1)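 Compound in a non-phytotoxic, surfactant-containing solvent is applied either as a directed soil spray before seedlings emerge or onto emerged plants 2-10 cm tall; pots hold a loam-sand blend. Plants grow 10 days under greenhouse conditions and are rated by eye against untreated controls (0 no effect, 100 complete control).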

[2] = tested on: blackgrass (Alopecurus myosuroides); test: as above; settings: 10 days
Method in brief: as §1

corn (Zea mays) [3] = test: as above; settings: 10 days
Method in brief: as §1

[4] = tested on: green foxtail (Setaria viridis); test: as above; settings: 10 days
Method in brief: as §1

kochia (Bassia scoparia) [5] = test: as above; settings: 10 days
Method in brief: as §1

[6] = tested on: oat, wild (wild oat, Avena fatua); test: as above; settings: 10 days
Method in brief: as §1

[7] = tested on: ragweed (common ragweed, Ambrosia artemisiifolia); test: as above; settings: 10 days
Method in brief: as §1

[8] = tested on: ryegrass, Italian (italian ryegrass, Lolium multiflorum); test: as above; settings: 10 days
Method in brief: as §1

soybean (Glycine max) [9] = test: as above; settings: 10 days
Method in brief: as §1

[10] = tested on: wheat (Triticum aestivum); test: as above; settings: 10 days
Method in brief: as §1

[11] = tested on: barnyardgrass (Echinochloa crus-galli); test: Test A postemergence application, visual injury rating 0-100
Method in brief: as §1

[12] = tested on: blackgrass (Alopecurus myosuroides); test: as above
Method in brief: as §1

corn (Zea mays) [13] = test: as above
Method in brief: as §1

[14] = tested on: galium (catchweed bedstraw, Galium aparine); test: as above
Method in brief: as §1

[15] = tested on: green foxtail (Setaria viridis); test: as above
Method in brief: as §1

[16] = tested on: horseweed (Erigeron canadensis); test: as above
Method in brief: as §1

kochia (Bassia scoparia) [17] = test: as above
Method in brief: as §1

[18] = tested on: oat, wild (wild oat, Avena fatua); test: as above
Method in brief: as §1

[19] = tested on: palmer (palmer amaranth, palmer pigweed, Amaranthus palmeri); test: as above
Method in brief: as §1

[20] = tested on: ragweed (common ragweed, Ambrosia artemisiifolia); test: as above
Method in brief: as §1

[21] = tested on: ryegrass, Italian (italian ryegrass, Lolium multiflorum); test: as above
Method in brief: as §1

soybean (Glycine max) [22] = test: as above
Method in brief: as §1

[23] = tested on: wheat (Triticum aestivum); test: as above
Method in brief: as §1

[24] = tested on: barnyardgrass (Echinochloa crusgalli); test: Test B flooded paddy test, visual plant response rating 0-100; settings: 250 g ai/ha, Flood, applied to paddy water, evaluated after 13 days
Method in brief: (§2)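 Treatment occurs at the 2-leaf stage by adding compound to floodwater standing 3 cm above the soil, a level kept for the whole test. Plants stay in the greenhouse 13 days before visual comparison with controls.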

[25] = tested on: ducksalad (Heteranthera limosa); test: as above; settings: 250 g ai/ha, Flood, applied to paddy water, evaluated after 13 days
Method in brief: as §2

rice (Oryza sativa) = test: as above; settings: 250 g ai/ha, Flood, applied to paddy water, evaluated after 13 days
Method in brief: as §2

[26] = tested on: sedge, umbrella (small-flower umbrella sedge, Cyperus difformis); test: as above; settings: 250 g ai/ha, Flood, applied to paddy water, evaluated after 13 days
Method in brief: as §2

[27] = 62 g ai/ha, 0 = no effect, 100 = complete control
[28] = 62 g ai/ha, postemergence, 10 days, 0 = no effect, 100 = complete control
[29] = Postemergence, 16 g ai/ha, greenhouse 10 days, 0 no effect, 100 complete control

CC1(C(=O)NC2CC=C(C(=O)OCC(F)(F)F)C2)CN(c2cc(F)cc(Cl)c2)C(=O)O1 (centres unmarked) [Compound 141]
30: Ragweed plant response rating (0 to 100 scale) [20, 29]
65: Plant response rating, Ducksalad (0 to 100 scale, 0 is no effect and 100 is complete control) [25]
20: Foxtail, Green plant response rating ([4]; 16 g ai/ha, 0 to 100 scale) | Oat, Wild plant response rating (0 to 100 scale) [18, 29] | Ryegrass, Italian plant response rating (0 to 100 scale) [21, 29]
80: Blackgrass plant response rating (0-100) [2, 27] | Kochia plant response rating (0-100) (kochia (Bassia scoparia) [5]; [27]) | Wheat plant response rating ([10]; 16 g ai/ha, 0 to 100 scale) | Galium plant response rating (0-100) [14, 28] | Galium plant response rating (0 to 100 scale) [14, 29] | Horseweed plant response rating (0-100) [16, 28] | Oat, Wild plant response rating (0-100) [18, 28] | Ryegrass, Italian plant response rating (0-100) [21, 28]
0: Barnyardgrass plant response rating ([1]; 16 g ai/ha, 0 to 100 scale) | Blackgrass plant response rating ([2]; 16 g ai/ha, 0 to 100 scale) | Kochia plant response rating (kochia (Bassia scoparia) [5]; 16 g ai/ha, 0 to 100 scale) | Oat, Wild plant response rating ([6]; 16 g ai/ha, 0 to 100 scale) | Ragweed plant response rating ([7]; 16 g ai/ha, 0 to 100 scale) | Ragweed plant response rating (0-100) [7, 27] | Soybean plant response rating (soybean (Glycine max) [9]; 16 g ai/ha, 0 to 100 scale)
50: Ryegrass, Italian plant response rating ([8]; 16 g ai/ha, 0 to 100 scale) | Plant response rating, Rice (0 to 100 scale, 0 is no effect and 100 is complete control) (rice (Oryza sativa))
10: Corn plant response rating (corn (Zea mays) [3]; 16 g ai/ha, 0 to 100 scale)
40: Oat, Wild plant response rating (0-100) [6, 27]
70: Barnyardgrass plant response rating (0-100) [1, 27] | Corn plant response rating (0-100) (corn (Zea mays) [3]; [27]) | Soybean plant response rating (0-100) (soybean (Glycine max) [9]; [27]) | Kochia plant response rating (0 to 100 scale) (kochia (Bassia scoparia) [17]; [29]) | Pigweed, Palmer plant response rating (0 to 100 scale) [19, 29] | Soybean plant response rating (0-100) (soybean (Glycine max) [22]; [28]) | Soybean plant response rating (0 to 100 scale) (soybean (Glycine max) [22]; [29])
60: Horseweed plant response rating (0 to 100 scale) [16, 29] | Ragweed plant response rating (0-100) [20, 28]
85: Plant response rating, Sedge, Umbrella (0 to 100 scale, 0 is no effect and 100 is complete control) [26]
90: Foxtail, Green plant response rating (0-100) [4, 27] | Ryegrass, Italian plant response rating (0-100) [8, 27] | Wheat plant response rating (0-100) [10, 27] | Blackgrass plant response rating (0-100) [12, 28] | Blackgrass plant response rating (0 to 100 scale) [12, 29] | Foxtail, Green plant response rating (0-100) [15, 28] | Foxtail, Green plant response rating (0 to 100 scale) [15, 29] | Kochia plant response rating (0-100) (kochia (Bassia scoparia) [17]; [28]) | Pigweed, Palmer plant response rating (0-100) [19, 28] | Wheat plant response rating (0-100) [23, 28] | Wheat plant response rating (0 to 100 scale) [23, 29] | Plant response rating, Barnyardgrass (0 to 100 scale, 0 is no effect and 100 is complete control) [24]
100: Barnyardgrass plant response rating (0-100) [11, 28] | Barnyardgrass plant response rating (0 to 100 scale) [11, 29] | Corn plant response rating (0-100) (corn (Zea mays) [13]; [28]) | Corn plant response rating (0 to 100 scale) (corn (Zea mays) [13]; [29])
